Assay [1] concerns murine adenocarcinoma CaNT tumour. The assay is described as follows: CaNT tumour model, ZD6126 and cisplatin, first study (tumour growth delay). In kind it is in vivo. Conditions: study 1, female CBA mice; ZD6126 100 + 100 mg/kg i.p. 2 h apart on days 0, 2, 4; cisplatin 5 mg/kg i.p. day 0. The protocol:
ZD6126 alone was dosed on days 0, 2 and 4 using a split dose regimen of 100 mg/kg ZD6126, followed by a 2 hour interval, followed by a further 100 mg/kg ZD6126; doses were given intraperitoneally (i.p.).
Cisplatin (David Bull Laboratories) alone was dosed at 5 mg/kg i.p on day 0.
The combination treatment consisted of: • Day 0: ZD6126 100 mg/kg i.p., followed by a 2 hour interval, followed by a further 100 mg/kg ZD6126 i.p; and cisplatin 5 mg/kg given 10 minutes before first ZD6126 dose. • Days 2 and 4: ZD6126 100 mg/kg i.p., followed by a 2 hour interval, followed by a further 100 mg/kg ZD6126 i.p.

The test system is the same in assay [2]. Kind of assay: CaNT tumour model, ZD6126 and cisplatin, second study (tumour growth delay). It counts as in vivo. Conditions: study 2, female CBA mice; ZD6126 100 + 100 mg/kg i.p. 2 h apart on days 0, 4, 7, 11; cisplatin 5 mg/kg i.p. days 0 and 7. The protocol: ZD6126 alone was dosed on days 0, 4, 7 and 11 using a split dose regimen of ZD6126 100 mg/kg i.p., followed by a 2 hour interval, followed by a further 100 mg/kg ZD6126 i.p.. Cisplatin alone was dosed at 5 mg/kg i.p on day 0 and day 7.
The combination treatment consisted of: • Days 0 and 7: ZD6126 100 mg/kg i.p., followed by a 2 hour interval, followed by a further 100 mg/kg ZD6126 i.p.; cisplatin given 10 minutes before first ZD6126 dose. • Days 3, 7 and 10: ZD6126 100 mg/kg i.p., followed by a 2 hour interval, followed by a further 100 mg/kg ZD6126 i.p..

In assay [3] the test system is human Calu 6 tumour cells. The assay is described as follows: Calu 6 tumour model, ZD6126 and cisplatin (tumour growth delay). It counts as in vivo. Conditions: athymic nude mice; ZD6126 100 mg/kg i.p. daily x5 (days 0-4 alone, days 1-5 in combination); cisplatin 4 mg/kg i.p. day 0. The protocol:
In a second tumour model, Calu 6, the advantage of combining ZD6126 and cisplatin (cis-Platinum(lI)Diammine Dichloride—Sigma P-4394) was confirmed. Athymic nude mice were implanted subcutaneously with 1×10^6 human Calu 6 tumour cells (obtained from American Type Culture Collection, 10801 University Boulevard, Manassas, Va. 20110-2209 Cat. no. HTB-56) and tumours allowed to grow until they were approximately 9 mm in diameter.
Groups of 10 tumour bearing mice were then treated as follows: • ZD6126 alone was dosed 100 mg/kg i.p. on days 0, 1, 2, 3, 4. • Cisplatin alone was dosed 4 mg/kg i.p. on day 0.
In the combination arm cisplatin 4 mg/kg i.p. was dosed on day 0, and ZD6126 100 mg/kg i.p. was dosed on days 1, 2, 3, 4 and 5.

Assay [4] concerns murine KHT sarcoma. Kind of assay: KHT sarcoma tumour model, cisplatin plus ZD6126 (tumour cell survival, excision and colony formation). In kind it is in vivo, mice. Conditions: 10 mg/kg cisplatin i.p. alone, assessed 24 hours later. The procedure:
In the murine KHT sarcoma model (Lingyun Li, B. S. et al, Int. J. Radiation Oncology Biol. Phys 42, 899-903, 1998) tumours were treated with either 10 mg/kg cisplatin i.p. alone or 10 mg/kg cisplatin plus ZD6126 (10-100 mg/kg i.p.), cisplatin given 1 hour prior to ZD6126. The effects of the treatments on tumour cell survival was assessed 24 hours later by excising the tumour, disaggregating the cells and determining the number of colonies formed after 10-14 days. Surviving fraction compared to untreated cells was then determined.

In assay [5] the test system is murine KHT sarcoma. The assay is described as follows: KHT sarcoma tumour model, ZD6126 and radiation (tumour cell survival, excision and colony formation). It counts as in vivo, mice. The protocol: The murine KHT sarcoma grown in C3H mice was also used to confirm the advantage of combining ZD6126 and radiation. Tumours were treated with either radiation alone (0, 5, 10, 15 or 20 Gy single dose), ZD6126 100 mg/kg i.p., or radiation followed 1 hour later by ZD6126 100 mg/kg i.p.. The effects of either radiation alone, ZD6126 alone or the combination on tumour cell survival was assessed 24 hours later by excising the tumour, disaggregating the cells and determining the number of colonies formed after 10-14 days. Surviving fraction compared to untreated cells was then determined.

The subject of assay [6] is murine adenocarcinoma CaNT tumour. Kind of assay: Cell survival assay, CaNT tumour model: effect of dosage interval. In kind it is in vivo, mice. Conditions: two doses of 100 mg/kg i.p. separated by 2, 3 or 4 hours; tumours excised about 18 hours after treatment. The procedure:
(§1) In vivo cell survival was measured using an excision assay (D J Chaplin et al., Anticancer Research 19: 189-196 (1999)).
(§2) Tumours were excised at about 18 hours after treatment, weighed and disaggregated for 1 hour at 37 degrees Celsius in an enzyme cocktail containing 1 mg/ml pronase, 0.5 mg/ml DNAase and 0.5 mg/ml collagenase. Haemocytometer counts of trypan blue-excluding cells were made and viable cells seeded in appropriate concentrations to yield about 50 colonies/dish after in vitro incubation. Heavily irradiated feeder cells (V79 cells) were used at a concentration of 25,000/ml to support the growth of the surviving CaNT cells. The data were calculated as surviving fraction per gram of tumour.
(§3) ZD6126 was administered as a single dose of […] intra-peritoneally (i.p.) in saline with a small amount of 1% sodium carbonate added to aid the dissolution of ZD6126.
ZD6126 was dosed using a split dose regimen of 100 mg/kg ZD6126, followed by a time interval, followed by a further 100 mg/kg ZD6126; doses were given intraperitoneally (i.p.) in saline with a small amount of 1% sodium carbonate added to aid the dissolution of ZD6126. The time intervals used were 1, 2, 3, 4 and 6 hours.

Assay [7] shares this test system. Kind of assay: Cell survival assay, CaNT tumour model: effect of dosage interval and split dose proportions. It counts as in vivo, mice. The protocol: as §1, §2
This improved effect varied with the proportion of total dose given in the first and second doses.
as §3
ZD6126 was dosed using split dose regimens of: • i) 25 mg/kg ZD6126, followed by a 2 hour interval, followed by a further 175 mg/kg ZD6126; • ii) 50 mg/kg ZD6126, followed by a 2 hour interval, followed by a further 150 mg/kg ZD6126; • iii) 100 mg/kg ZD6126, followed by a 2 hour interval, followed by a further 100 mg/kg ZD6126; • iv) 150 mg/kg ZD6126, followed by a 2 hour interval, followed by a further 50 mg/kg ZD6126; • v) 175 mg/kg ZD6126, followed by a 2 hour interval, followed by a further 25 mg/kg ZD6126; All doses were given intraperitoneally (i.p.) in saline with a small amount of 1% sodium carbonate added to aid the dissolution of ZD6126.

`[NH2][Pt]([NH2])([Cl])[Cl]` [Cisplatin, cis-Platinum(lI)Diammine Dichloride]: the “Mean growth delay (vs control) - days” value was 2.1 days in assay [1] and 7.7 days in assay [2]. Also, the “growth delay (time to reach 2× starting volume) compared to control tumours” value in assay [3] is listed as 6.0 days. In the assay with murine KHT sarcoma [4], the cell killing result is “approximately 98%”.

As to `COc1cc2c(c(OC)c1OC)-c1ccc(OP(=O)(O)O)cc1[C@@H](NC(C)=O)CC2` [ZD6126, (5S)-5-(acetylamino)-9,10,11-trimethoxy-6,7-dihydro-5H-dibenzo[a,c]cyclohepten-3-yl dihydrogen phosphate], the “enhanced cell killing over controls” value with murine KHT sarcoma [5] (ZD6126 alone with no radiation) was 40 fold. In addition, the “Plus ZD6126 % cell survival” value worked out at 2.5% in the assay on murine KHT sarcoma [5] (radiation dose 0 Gy, ZD6126 100 mg/kg i.p., C3H mice, 24 hours later); 0.16% in the assay with murine KHT sarcoma [5] (radiation dose 5 Gy followed 1 hour later by ZD6126 100 mg/kg i.p.); 0.015% in the assay on murine KHT sarcoma [5] (radiation dose 10 Gy followed 1 hour later by ZD6126 100 mg/kg i.p.); 0.0016% in the assay on murine KHT sarcoma [5] (radiation dose 15 Gy followed 1 hour later by ZD6126 100 mg/kg i.p.). The “surviving fraction of tumour cells, divided doses compared with single dose” value in assay [6] is reported as “significantly more effective in this model than a single 200 mg/kg dose”. Moreover, the “split dose proportion giving the best anti-tumour effect” value in assay [7] (regimen iii) 100 mg/kg + 100 mg/kg, 2 hour interval) is recorded as “best effect was seen with equal split doses”. Also, the “significance of the greater effect of divided doses over a single dose” value in assay [7] (regimens i) 25+175, iii) 100+100 or iv) 150+50 mg/kg, 2 hour interval) is listed as “significant”. Further, the “anti-tumour effect, as measured by surviving fraction of tumour cells, divided doses compared with single dose” value in assay [7] (total 200 mg/kg i.p. in two doses 2 hours apart, regimens i) to v)) was “greater with divided doses of ZD6126 than with a single dose of 200 mg/kg ZD6126”.

These data come from patent US6906048B2, “N-acetylcolchinol-O-phosphate combination therapies with vascular damaging activity” (AstraZeneca AB, priority 2000, dated 2005).
